Experimental findings from article PMC12071365, “Discovery of Boronic Acids-Based β-Lactamase Inhibitors Through In Situ Click Chemistry” (International Journal of Molecular Sciences, 2025) are described below.

Like-named read-outs stand apart in the source and are kept apart here.

Data set [1] addresses T1, KPC-2 (Klebsiella pneumoniae, UniProt Q9F663).
T1 construct: made in house
As to the kind of experiment: Competitive inhibition assay with nitrocefin, Ki. It is filed as biochemical. To be noted: for improvement compared with the warhead activity: Ki vs KPC-2 relative to warhead 3 (Ki = 2.3 µM). As for the experimental part: (§1) The β-lactamases used in the present study were from a Clinical Biochemistry Laboratory collection (Department of Biotechnological and Applied Clinical Sciences, University of L’Aquila, L’Aquila, Italy). […] The concentration of each enzyme was determined by a Bradford assay.
(§2) The plot v0/vi versus [I] yielded a straight line of slope KM/(KM + S) × Ki.
AC = Amplification coefficient. In the AC column, between brackets reports the regioisomeric ratio observed (1,4- vs. 1,5-) and bold reports the synthesised regioisomer. Light blue indicates the compounds obtained from the KPC-2 screening.

Data set [2] concerns the target T2, AmpC (Escherichia coli, UniProt P00811). Description: Competitive inhibition assay with nitrocefin, Ki. The class given is biochemical. Set-up: made in house. The protocol:
as §1, §2
Figure 9 Compounds synthesised and their biological evaluation. AC = Amplification coefficient. […] Light blue indicates the compounds from the AmpC screening.

Data set [3] has as its target T1, KPC-2. The following applies: KPC-2 20 mol%; warhead 3 + alkyne cluster; 37 °C, 24 h. The protocol:
Starting from the azido-functionalised boronic acid 3, optimised conditions (see SI Table S2) were applied in combination with the 90-component alkyne library. The reactions were conducted in 0.2 mL microtubes in a 95:5 sodium phosphate 50 mM pH 7.0:DMSO mixture (final volume 100 µL), stirring at 300 rpm at 37 °C for 24 h (Scheme 1).
The experiments were conducted in triplicate, using a reaction mixture containing one equivalent of warhead 3, five equivalents of each alkyne cluster (9 alkynes), and 20 mol% KPC-2 as the catalyst. Product formation was monitored directly from the crude mixture using a hybrid quadrupole orbitrap LC–MS system in the ESI+ or ESI- mode after 24 h. Peak areas of the desired products were compared across three conditions: with KPC-2, without any enzyme, and with bovine serum albumin (BSA). […] The resulting ratio, named as the amplification coefficient (AC), was calculated from the peak area of the product obtained in the presence of KPC-2 vs. the one acquired with the controls.
(§3) Binary and multicomponent KTGS. […] The microtube was shaken at 300 rpm at 37 °C for 24 h. Reactions were transferred into a LC–MS vial and directly injected (10 µL) for liquid chromatography–mass spectrometry (LC–MS). Reactions were analysed with an Ultimate 3000 UHPLC coupled to a Q-exactive hybrid quadrupole-orbitrap mass spectrometer via an HESI-II heated electrospray ionisation source. The chromatographic separation was performed injecting a 10 µL sample volume on a Hypersil Gold C18 100 × 2.1 mm, 1.9 µm column (Thermo Fisher Scientific), kept at 30 °C eluting with 0.3 mL/min flow of ultrapure water (A) and methanol (B), both with 0.1% formic acid as mobile phase. […] A data-dependent mass spectrometric data acquisition strategy was used for full MS/DD-MS2. […] An inclusion list was eventually used to target the MS2 spectra acquisition of preferred ion species. Detection was based on calculated [M+H]^+ and [M−H]^− molecular ions with a 5 ppm accuracy tolerance for their respective ion chromatogram extraction. Peak retention time and area of detected target compounds was used for their detection and semi-quantitative evaluation in between reaction batches.
(§4) For controls (buffer and BSA), AmpC/KPC-2 is replaced with no enzyme (buffer volume 95 µL) and BSA (stock 100 µM, final concentration 5 µM, buffer volume 90 µL). Hits were identified in each cluster by mass and retention time and compared with both controls (buffer and BSA) and synthetically prepared triazoles obtained in mixtures.

Data set [4] has as its target T2, AmpC. The arrangement: made in house. To be noted: AmpC 20 mol%; warhead 3 + alkyne cluster; 37 °C, 24 h. As for the experimental part:
Following the same conditions used for the multicomponent screening with KPC-2, the in situ click chemistry experiment was performed using AmpC as template.
as §3, §4

Data set [5] relates to O=C(Cc1cccs1)N[C@@H]1C(=O)N2C(C(=O)O)=C(/C=C/c3ccc([N+](=O)[O-])cc3[N+](=O)[O-])CS[C@H]12. Description: purified protein, by the assay type.

T2 sequence (P00811 20-377): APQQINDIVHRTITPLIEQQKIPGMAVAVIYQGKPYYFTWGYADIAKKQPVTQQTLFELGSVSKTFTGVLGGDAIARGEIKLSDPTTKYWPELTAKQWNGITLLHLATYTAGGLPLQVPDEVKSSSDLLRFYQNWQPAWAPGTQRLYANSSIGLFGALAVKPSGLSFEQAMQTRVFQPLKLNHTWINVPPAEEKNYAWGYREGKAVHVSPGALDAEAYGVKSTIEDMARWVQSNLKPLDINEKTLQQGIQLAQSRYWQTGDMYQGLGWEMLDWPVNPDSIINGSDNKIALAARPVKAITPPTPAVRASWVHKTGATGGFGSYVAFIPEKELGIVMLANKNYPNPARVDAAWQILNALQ
T1 sequence (Q9F663 25-293, looked up, species assumed): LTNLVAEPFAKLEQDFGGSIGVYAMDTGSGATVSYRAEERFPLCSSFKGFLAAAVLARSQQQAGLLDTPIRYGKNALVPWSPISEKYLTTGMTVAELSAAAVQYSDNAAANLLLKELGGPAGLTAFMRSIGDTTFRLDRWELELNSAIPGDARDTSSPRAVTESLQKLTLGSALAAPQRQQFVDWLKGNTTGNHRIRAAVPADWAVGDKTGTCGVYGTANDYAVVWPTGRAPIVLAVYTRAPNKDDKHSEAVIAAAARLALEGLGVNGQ

Take `COC(=O)c1cccc(CS(=O)(=O)NCc2cnnn2Cc2cccc(B(O)O)c2)c1` [7a]: the Ki – broadly, the dissociation constant of the complex between target and ligand, obtained from inhibition or displacement – on KPC-2 [1] was found to be 4600 nM; on AmpC [2] (AmpC, values in nM), 170 nM.

For the compound `C#CCOc1cccc(C(N)=O)c1` [Al-32], the “AC (amplification coefficient)” value at KPC-2 [3] is listed as “exceeding three”.

As for `C#CCS(=O)(=O)c1ccccc1` [Al-39], the “AC (amplification coefficient)” value on KPC-2 [3] is on record as “exceeding three”.

In the case of `C#CCNS(=O)(=O)Cc1cccc(C(=O)OC)c1` [Al-57], the “AC (amplification coefficient)” value at KPC-2 [3] is on record as “exceeding three”.

As for `C#CCNC(=O)c1ccc(C(=O)OC)cc1` [Al-88], at AmpC [4], the “AC (amplification coefficient)” value is 3-4.

`NC(=O)c1cccc(OCc2cn(Cc3cccc(B(O)O)c3)nn2)c1` [compound 5] gave a Ki on KPC-2 [1] (KPC-2, values in nM) of 730 nM. The “improvement compared with the warhead activity” value on KPC-2 [1] is 3 fold. The “AC (amplification coefficient)” value on KPC-2 [3] is listed as 3-4.

`O=S(=O)(Cc1cn(Cc2cccc(B(O)O)c2)nn1)c1ccccc1` [compound 6]: on KPC-2 [1], affinity was put at a Ki of 800 nM and the “improvement compared with the warhead activity” value is listed as 3 fold. Further, the “AC (amplification coefficient)” value at KPC-2 [3] is given as 3-4.

In the case of `COC(=O)c1cccc(CS(=O)(=O)NCc2cn(Cc3cccc(B(O)O)c3)nn2)c1` [compound 7], the Ki at KPC-2 [1] worked out at 1700 nM; on AmpC [2] (AmpC, values in nM), 300 nM. In addition, the entries for the “AC (amplification coefficient)” value on KPC-2 [3] and at AmpC [4] were 5-6 and 4-5, respectively.

For the compound `CCCCC(=O)NCc1cn(Cc2cccc(B(O)O)c2)nn1` [compound 8], the values for the Ki at KPC-2 [1] and at AmpC [2] were 7600 ± 400 nM and 1500 nM, respectively.

Take `CC(C)CC(O)c1cn(Cc2cccc(B(O)O)c2)nn1` (stereo not drawn) [compound 9]: the Ki amounted to 5600 ± 300 nM at KPC-2 [1] and 11000 nM on AmpC [2].

For `O=S(=O)(NCc1cn(Cc2cccc(B(O)O)c2)nn1)C1CCCCC1` [compound 10], the Ki was 670 ± 100 nM at KPC-2 [1] and 600 nM at AmpC [2] (AmpC, values in nM).

For `CN(C)c1ccc(-c2cn(Cc3cccc(B(O)O)c3)nn2)cc1` [compound 11], the Ki on KPC-2 [1] was 460 nM; on AmpC [2] (AmpC, values in nM), 280 nM.

At AmpC [2] (AmpC, values in nM), `COC(=O)c1ccc(C(=O)NCc2cn(Cc3cccc(B(O)O)c3)nn2)cc1` [compound 12] came in with a Ki of 400 nM. At AmpC [4], the “AC (amplification coefficient)” value was 3-4.

With `O=C(CCC1CCCCC1)NCc1cn(Cc2cccc(B(O)O)c2)nn1` [compound 13], the Ki on AmpC [2] (AmpC, values in nM) is 800 nM.

Regarding CMY-2 (Klebsiella pneumoniae), the Km in data set [5] (other: CMY-2, NaPi 50 mM pH 7.0) is on record as 8 ± 1 µM µM.

As to CTX-M-15 (Escherichia coli), in data set [5] (other: CTX-M-15, NaPi 50 mM pH 7.0), the Km is given as 35 ± 1 µM µM.

For OXA-24 (Acinetobacter baumannii), the Km in data set [5] (other: OXA-24, NaPi 50 mM pH 7.0) came out at 29 ± 1 µM µM.
